Legend:
[1] = tested on: Asphyxial anoxia; test: Antihypoxic effect on mice (asphyxial anoxia); type: in vivo, male mice (CFLP LATI); settings: for ED50: Mus musculus, po, 1 hour before, protected = survival 30 % longer than control
Protocol: The antianoxic action of the target compounds was studied by using the following test method.
ANTIHYPOXIC EFFECT ON MICE
Male mice (CFLP LATI) weighing 24 to 26 g were used in these experiments. The test compounds were orally administered in a volume of 10 ml/kg one hour before starting the experiment.
The animals were orally treated with various doses of the test compounds after starving for 16 hours. One hour following the treatment the animals were placed in air-tight glass cylinders of 100 ml volume and the survival time of the animals was measured. Each group consisted of 10 animals. Animals, surviving longer by 30 % than the average survival time of the control group treated with placebo, were considered to be protected. The ED50 value (the dose effective in 50 % of the animals) was calculated from the percentage of surviving animals by using probit analysis.

[2] = tested on: TET-induced increase in the brain water content; test: TET-induced cerebral edema in rats (brain water content, protective effect); type: in vivo, inbred male Hannover Wistar rats; settings: for Brain water content % ± S.E.M. / Protective effect %: 5 days TET 2.5 mg/kg; for protective action against TET-induced edema (in words): result in words
Description: The inhibitory effect on the cerebral edema of the compounds of formula (I) was studied by using the method of P. Linnee et al. "L'oedeme cerebral induit chez 1e rat par le triethyletain. Interet et limites comme methode d'etude de antioedemateux cerebraux", Ann. Pharmaceutiques francaises, 42, 431 (1984)) as described hereinafter in detail.
Inbred male Hannover Wistar rats weighing 180 to 200 g were used in these examinations. Before starting and during the treatment the animals were kept on normal laboratory diet and received tap water ad libitum.
The cerebral edema was induced by the daily administration of 2.5 mg/kg of triethyl-tin chloride (abbreviated hereinafter as TET) for 5 days. TET (Merck-Schuchardt, Darmstadt, Germany) was dissolved in distilled water under stirring and the stirring was continued during the treatment, too. TET was orally administered to the animals every day at 7 o'clock a.m.
Both the reference drugs and test compounds were homogenized in a 0.5 % carboxymethylcellulose solution by using an Ultra Turrax mixer and stirring was continued also during the administration. The first dose of the reference and test compounds, respectively, was orally 5 given following the TET treatment by 1 or 6 hours, respectively. The administration was always carried out in a volume of 0.5 ml/100 g of body-weight. Each group consisted of 7 animals; the control group received only the solvent of TET (distilled water) and the vehicle used for the compounds (0.5% carboxymethylcellulose solution) in an identical volume and at the same time as described above.
The animals were decapitated on the 5th day of the treatment at 2 hours after the last treatment (with the test compound). The whole brain was rapidly removed, washed with cold 0.9 % saline, the moisture was removed by a filter paper, the brains were placed on aluminum foils previously weighed and the wet weights of the brains (together with the aluminum foil of known weight) were determined with an accuracy of one tenth mg on an electric balance (Precisa 80/A, PAG Oerlikon AG, Zurich, Switzerland).
Subsequently the brains were dried at 90° C. for 92 hours, then the gross dry weight (dry weight of the brain together with the weight of the aluminum foil) was again measured. With the knowledge of the dry and wet weights, the brain water content, i.e. the effect of treatment by the compound was calculated and expressed in the percentage of the protective effect by using the following formula: [formula] wherein (TET-Ko) means the percentage of average brain water content of the animals treated with TET and vehicle;
(TET-V) means the percentage of average brain water content of the animals treated with TET and the compound; and
(Veh-Ko) means the percentage of average brain water content of the animals treated with distilled water and vehicle.
The deviations of changes in the brain water content (and dry weight) were analyzed by the means of Student's "t" trial.

CC[C@]12CCCN3CC[C@]4(C(=C(C(=O)OC)C1)Nc1ccc([N+](=O)[O-])cc14)[C@@H]32 [compound 1700374, 15-nitro-6,7-dihydrotabersonine]
ED50 [1]: > 100 mg/kg | protection against cerebral hypoxia (in words) ([1]; result in words, up to 100 mg/kg p.o.): did not provide any protection

CC[C@]12C=CCN3CC[C@@]4(c5cc([N+](=O)[O-])ccc5N[C@H]4[C@@H](C(=O)OC)C1)[C@@H]32 [compound 1703594, methyl-15-nitro-6,7-didehydro-(2β, 5α, 12β, 19α)-aspidospermidine-(15-nitro-2β, 3β-dihydrotabersonine)]
Brain water content % ± S.E.M. ([2]; Experiment 4, 50 μmol/kg oral): 78.61% | Protective effect % ([2]; Experiment 4, 50 μmol/kg oral): 82.9% | ED50 [1]: 56.3 mg/kg

CC[C@]12CCCN3CC[C@@]4(c5cc([N+](=O)[O-])ccc5N[C@H]4[C@@H](C(=O)OC)C1)[C@@H]32 [compound 1704369, methyl 15-nitro-(2β, 5α, 12β, 19α)-aspidospermidine-3α-carboxylate]
protection against the edema-inducing effect of TET ([2]; 100 μmol/kg oral, summary of experiments in text): 100% | Brain water content % ± S.E.M. ([2]; Experiment 1, 100 μmol/kg oral): 78.09 ± 0.09% | Protective effect % ([2]; Experiment 1, 100 μmol/kg oral): 103.6% | Brain water content % ± S.E.M. ([2]; Experiment 2, 100 μmol/kg oral): 78.15 ± 0.05% | Protective effect % ([2]; Experiment 2, 100 μmol/kg oral): 99.3% | Brain water content % ± S.E.M. ([2]; Experiment 4, 50 μmol/kg oral): 78.30% | Protective effect % ([2]; Experiment 4, 50 μmol/kg oral): 105.9% | protective action against TET-induced edema (in words) [2]: even more effective than the structurally similar vincamine

CCOC(=O)[C@H]1C[C@]2(CC)CCCN3CC[C@@]4(c5cc([N+](=O)[O-])ccc5N[C@@H]14)[C@@H]32 [compound 1708009, ethyl 15-nitro-(2β, 5α, 12β, 19α)-aspidospermidine-3α-carboxylate]
Brain water content % ± S.E.M. ([2]; Experiment 3, 50 μmol/kg oral): 79.44 ± 0.11% | Protective effect % ([2]; Experiment 3, 50 μmol/kg oral): 32.5% | protective action against TET-induced edema (in words) [2]: similarly effective | ED50 [1]: 62 mg/kg

COC1=C(OC)C(=O)C(CCCCCCCCCCO)=C(C)C1=O [idebenone, 5,6-dimethoxy-2-(10-hydroxydecyl)-3-methyl-p-benzoquinone]
Brain water content % ± S.E.M. ([2]; Experiment 3, 100 μmol/kg oral): 79.75 ± 0.14% | Protective effect % ([2]; Experiment 3, 100 μmol/kg oral): 14.0% | Brain water content % ± S.E.M. ([2]; Experiment 6, 100 μmol/kg oral): 80.22 ± 0.16% | Protective effect % ([2]; Experiment 6, 100 μmol/kg oral): 16.9% | protective action against TET-induced edema (in words) [2]: did not produce any practically useful protective action

NC(=O)CN1CCCC1=O [piracetam, 2-oxo-1-pyrrolidineacetic acid amide]
Brain water content % ± S.E.M. ([2]; Experiment 5, 100 μmol/kg oral): 80.04 ± 0.28%

CC[C@]12CCCN3CCc4c(n(c5ccccc45)[C@@](O)(C(=O)OC)C1)[C@@H]32 [vincamine, (+) -14β-hydroxy-14α-methoxycarbonyl-14, 15- -dihydroeburnamenine]
Brain water content % ± S.E.M. ([2]; Experiment 1, 100 μmol/kg oral): 78.83 ± 0.15% | Protective effect % ([2]; Experiment 1, 100 μmol/kg oral): 64.9% | Brain water content % ± S.E.M. ([2]; Experiment 2, 100 μmol/kg oral): 78.70 ± 0.13% | Protective effect % ([2]; Experiment 2, 100 μmol/kg oral): 59.6% | Brain water content % ± S.E.M. ([2]; Experiment 4, 50 μmol/kg oral): 79.31% | Protective effect % ([2]; Experiment 4, 50 μmol/kg oral): 31.6%

(5'α, 10α)-9, 10-dihydro-12'-hydroxy- 2'-methylethyl)-5'-benzylergotamine-3+, 6', 18-trione monomethanesulfonate [hydergine]
Brain water content % ± S.E.M. ([2]; Experiment 6, 30 mg/kg oral): 79.97 ± 0.38% | Protective effect % ([2]; Experiment 6, 30 mg/kg oral): 25.6% | protective action against TET-induced edema (in words) [2]: did not produce any practically useful protective action

Reference: patent publication US5204355A, “15-nitro-2β, 3β-dihydro- and 15-nitro-2β,3β,6,7-tetrahydrotabersonine derivatives, pharmaceutical compositions containing them and process for preparing same” (Richter Gedeon Vegyeszeti Gyar RT., priority 1990, dated 1993)
